Measured values reported in US4220643A, “Nitrosourea pentose compounds” (priority 1977, dated 1980).

Experiments:
[1] = system: experimental tumors; settings: wide variety of experimental tumors; refers to U.S. Pat. No. 4,086,415; cited from earlier work
[2] = Acute toxicity in intraperitoneal administration to BDF1 mice; settings: mouse, in vivo, ip
From the text: The nitrosourea compounds according to this invention are further characterized by their low toxicity. Thus, acute toxicity of the compounds in intraperitoneal administration to BDF1 mice is as follows: […]

[3] = system: Leukemia L 1210 cells; test: Anti-leukemic activity on Leukemia L 1210 in mice (60 days observation); assay type: in vivo, mice (male BDF1); settings: for ILS (percentage increase in life-span) / Mean survival days: 60 days observation
Procedure: The anti-leukemic activity of both the anomers of this invention was tested on Leukemia L 1210 in mice, details of which are given below. By way of comparison, the 1-methyl homologue of the β-anomer of this invention, i.e. 1-methyl-1-nitroso-3-(β-D-ribofuranosyl) urea (refer to T. Suami et al., Japanese Patent Prepublication No. 83365/75), was tested in a similar way.
Male BDF1 mice, aged about 7-weeks old and weighing 22±3 g were used in groups of three animals each for the test of compounds No. 1 and No. 2 or of two animals each for the test of compound No. 3.
Leukemia L 1210 cells were used. For the test of compounds No. 1 and No. 2, 2×10^6 cells/0.04 ml/mouse were intraperitoneally inoculated and for the test of compound No. 3, 1.8×10^6 /0.04 ml/mouse were intraperitoneally inoculated.
The test compound was dissolved in a physiological salt solution to give a series of solutions in predetermined concentrations and 0.1 ml of the each solution was administered intraperitoneally to each mouse once a day from the 24th hour after the tumor cell inoculation for 3 consecutive days for the test of compounds No. 1 and No. 2 or for 2 consecutive days for the test of compound No. 3. The anti-leukemic activity of the compounds tested was assessed by mean survival days, percentage increase in life-span, number of survivors after 60 days observation and the volume of ascites. The percentage increase in life-span (ILS) was calculated as follows: […]
T: The mean survival days of the treated animals
C: The mean survival days of the untreated animals
The control test for this purpose was carried out in the same way as that used for the test of compounds No. 1 and No. 2 or for the test of compound No. 3 except that 0.1 ml of the physiological salt solution was administered in place of the solution of the test compound.

[4] = 1 mg/kg i.p. once daily, 3 consecutive days
[5] = 2 mg/kg i.p. once daily, 3 consecutive days
[6] = 2 mg/kg i.p. once daily, 3 consecutive days, untreated control 4.5 ml
[7] = 4 mg/kg i.p. once daily, 3 consecutive days
[8] = 4 mg/kg i.p. once daily, 3 consecutive days, untreated control 4.5 ml
[9] = 8 mg/kg i.p. once daily, 3 consecutive days
[10] = 8 mg/kg i.p. once daily, 3 consecutive days, untreated control 4.5 ml
[11] = 16 mg/kg i.p. once daily, 3 consecutive days
[12] = 16 mg/kg i.p. once daily, 3 consecutive days, untreated control 4.5 ml
[13] = dose not given, i.p. once daily, 3 consecutive days
[14] = 50 mg/kg i.p. once daily, 2 consecutive days
[15] = 100 mg/kg i.p. once daily, 2 consecutive days
[16] = 200 mg/kg i.p. once daily, 2 consecutive days
[17] = 250 mg/kg i.p. once daily, 2 consecutive days

SMILES | LD50 [2] [mg/kg] | Number of survivors (after 60 days) [3, 5] | ILS (percentage increase in life-span) [3, 5] [%] | Mean survival days [3, 5] [days] | Volume of ascites [3, 6] [mL] | Number of survivors (after 60 days) [3, 7] | ILS (percentage increase in life-span) [3, 7] [%] | Mean survival days [3, 7] [days] | Volume of ascites [3, 8] [mL] | Number of survivors (after 60 days) [3, 9] | ILS (percentage increase in life-span) [3, 9] [%] | Mean survival days [3, 9] [days] | Volume of ascites [3, 10] [mL] | Number of survivors (after 60 days) [3, 11] | ILS (percentage increase in life-span) [3, 11] [%] | Mean survival days [3, 11] [days] | Volume of ascites [3, 12] [mL] | other results
O=NN(CCCl)C(=O)N[C@@H]1O[C@H](CO)[C@@H](O)[C@H](O)[C@H]1O [GANU, 1-(2-chloroethyl)-3-(β-D-glucopyranosyl)-1-nitrosourea] |  |  |  |  |  |  |  |  |  |  |  |  |  |  |  |  |  | Antitumor activity, in words [1]: broad spectrum of antitumor activity against a wide variety of experimental tumors
O=NN(CCCl)C(=O)N[C@H]1O[C@H](CO)[C@@H](O)[C@H]1O [compound 1, 1-(2-chloroethyl)-1-nitroso-3-(α-D-ribofuranosyl) urea] | 34 | 0/3 | 50.0 | 15.3 | 0 | 2/3 | > 383.0 | > 48.3 | 0 | 2/3 | > 323.0 | > 42.3 | 0 | 0/3 | 13.0 | 11.3 | 0 | Number of survivors (after 60 days) [3, 4]: 0/3; ILS (percentage increase in life-span) [3, 4]: 37.0%; Mean survival days [3, 4]: 13.7 days; Volume of ascites ([3]; 1 mg/kg i.p. once daily, 3 consecutive days, untreated control 4.5 ml): 1.7 mL
O=NN(CCCl)C(=O)N[C@@H]1O[C@H](CO)[C@@H](O)[C@H]1O [compound 2, 1-(2-chloroethyl)-1-nitroso-3-(β-D-ribofuranosyl) urea] | 30 | 1/3 | > 223.0 | > 32.3 | 0 | 2/3 | > 360.0 | > 46.0 | 0 | 3/3 | > 500.0 | > 60.0 | 0 | 0/3 | -13.0 | 8.7 | 0 | Number of survivors (after 60 days) [3, 13]: 0/3; ILS (percentage increase in life-span) [3, 13]: 53.0%; Mean survival days [3, 13]: 15.3 days; Volume of ascites ([3]; dose not given, i.p. once daily, 3 consecutive days, untreated control 4.5 ml): 2.5 mL
CN(N=O)C(=O)N[C@@H]1O[C@H](CO)[C@@H](O)[C@H]1O [compound 3, 1-methyl-1-nitroso-3-(β-D-ribofuranosyl) urea, reference compound] |  |  |  |  |  |  |  |  |  |  |  |  |  |  |  |  |  | Number of survivors (after 60 days) [3, 14]: 0/2; ILS (percentage increase in life-span) [3, 14]: 50.0%; Mean survival days [3, 14]: 15.0 days; Volume of ascites ([3]; 50 mg/kg i.p. once daily, 2 consecutive days, untreated control 5.3 ml): 4.6 mL; Number of survivors (after 60 days) [3, 15]: 0/2; ILS (percentage increase in life-span) [3, 15]: 50.0%; Mean survival days [3, 15]: 15.0 days; Volume of ascites ([3]; 100 mg/kg i.p. once daily, 2 consecutive days, untreated control 5.3 ml): 0.7 mL; Number of survivors (after 60 days) [3, 16]: 0/2; ILS (percentage increase in life-span) [3, 16]: 80.0%; Mean survival days [3, 16]: 18.0 days; Volume of ascites ([3]; 200 mg/kg i.p. once daily, 2 consecutive days, untreated control 5.3 ml): 0.3 mL; Number of survivors (after 60 days) [3, 17]: 0/2; ILS (percentage increase in life-span) [3, 17]: 15.0%; Mean survival days [3, 17]: 11.5 days; Volume of ascites ([3]; 250 mg/kg i.p. once daily, 2 consecutive days, untreated control 5.3 ml): 0.6 mL
